Data taken from ChEMBL document CHEMBL1133412, “Rational design, synthesis and structure-activity relationships of antitumor (E)-2-benzylidene-1-tetralones and (E)-2-benzylidene-1-indanones” (Bioorg Med Chem Lett, 2000).
One block for each compound: values may come before it.

Legend:
Format in all cases: functional, cell-based
A549 = experiment: Cytotoxicity evaluated against A549 tumor cell lines; significant activity; conditions: Homo sapiens
B16 = experiment: Cytotoxicity was evaluated against B16 tumor cell lines; Significant activity; conditions: Mus musculus
CCRF-CEM = experiment: Cytotoxicity evaluated against CEM tumor cell lines; Significant activity; conditions: Homo sapiens
NCI-H596 = experiment: Cytotoxicity evaluated against H596 tumor cell lines; Significant activity; conditions: Homo sapiens
NCI-H292 = experiment: Cytotoxicity evaluated against H292 tumor cell lines; Significant activity; conditions: Homo sapiens
HL-60 = experiment: Cytotoxicity evaluated against HL-60 tumor cell lines; Significant activity; conditions: Homo sapiens
Jurkat = experiment: In vitro test for antitumor activity against human Jurkat cell line using a formazan dye (MTT) conversion assay.
K562 = experiment: Cytotoxicity evaluated against K562 tumor cell lines; Significant activity; conditions: Homo sapiens
L1210 = experiment: Cytotoxicity evaluated against L1210 tumor cell lines; Significant activity; conditions: Mus musculus
MCF7 = experiment: Cytotoxicity evaluated against MCF-7 tumor cell lines; Significant activity; conditions: Homo sapiens
MOLT-4 = experiment: Cytotoxicity was evaluated against Molt-4 tumor cell lines; conditions: Homo sapiens
NIH3T3 = experiment: Cytotoxicity evaluated against NIH3T3 tumor cell lines; Significant activity; conditions: Mus musculus
WI-38 = experiment: Cytotoxicity evaluated against WI38 tumor cell lines; Significant activity; conditions: Homo sapiens
WIL2 = experiment: Cytotoxicity evaluated against WIL2 tumor cell lines; Significant activity; conditions: Homo sapiens

Compound: COc1cc2c(cc1OC)C(=O)/C(=C/c1cccc(Cl)c1)C2
- Cytotoxicity (A549): Significant activity
- Cytotoxicity (B16): Significant activity
- Cytotoxicity (CCRF-CEM): Significant activity
- Cytotoxicity (NCI-H596): Significant activity
- Cytotoxicity (NCI-H292): Significant activity
- Cytotoxicity (HL-60): Significant activity
- IC50 (Jurkat): 8 µM
- Cytotoxicity (K562): Significant activity
- Cytotoxicity (L1210): Significant activity
- Cytotoxicity (MCF7): Significant activity
- Cytotoxicity (MOLT-4): Significant activity
- Cytotoxicity (NIH3T3): Significant activity
- Cytotoxicity (WI-38): Significant activity
- Cytotoxicity (WIL2): Significant activity

Compound: COc1cc2c(cc1OC)C(=O)/C(=C/c1cc(C)c(O)c(C)c1)CC2
- Cytotoxicity (A549): Significant activity
- Cytotoxicity (B16): Significant activity
- Cytotoxicity (CCRF-CEM): Significant activity
- Cytotoxicity (NCI-H596): Significant activity
- Cytotoxicity (NCI-H292): Significant activity
- Cytotoxicity (HL-60): Significant activity
- IC50 (Jurkat): 4.8 µM
- Cytotoxicity (K562): Significant activity
- Cytotoxicity (L1210): Significant activity
- Cytotoxicity (MCF7): Significant activity
- Cytotoxicity (MOLT-4): Significant activity
- Cytotoxicity (NIH3T3): Significant activity
- Cytotoxicity (WI-38): Significant activity
- Cytotoxicity (WIL2): Significant activity

Compound: COc1cc2c(cc1OC)C(=O)/C(=C/c1cc(C)cc(C)c1)CC2
- Cytotoxicity (A549): Significant activity
- Cytotoxicity (B16): Significant activity
- Cytotoxicity (CCRF-CEM): Significant activity
- Cytotoxicity (NCI-H596): Significant activity
- Cytotoxicity (NCI-H292): Significant activity
- Cytotoxicity (HL-60): Significant activity
- IC50 (Jurkat): 4 µM
- Cytotoxicity (K562): Significant activity
- Cytotoxicity (L1210): Significant activity
- Cytotoxicity (MCF7): Significant activity
- Cytotoxicity (MOLT-4): Significant activity
- Cytotoxicity (NIH3T3): Significant activity
- Cytotoxicity (WI-38): Significant activity
- Cytotoxicity (WIL2): Significant activity

Compound: COc1cc2c(cc1OC)C(=O)/C(=C/c1cccc(C)c1)CC2
- Cytotoxicity (A549): Significant activity
- Cytotoxicity (B16): Significant activity
- Cytotoxicity (CCRF-CEM): Significant activity
- Cytotoxicity (NCI-H596): Significant activity
- Cytotoxicity (NCI-H292): Significant activity
- Cytotoxicity (HL-60): Significant activity
- IC50 (Jurkat): 17 µM
- Cytotoxicity (K562): Significant activity
- Cytotoxicity (L1210): Significant activity
- Cytotoxicity (MCF7): Significant activity
- Cytotoxicity (MOLT-4): Significant activity
- Cytotoxicity (NIH3T3): Significant activity
- Cytotoxicity (WI-38): Significant activity
- Cytotoxicity (WIL2): Significant activity

Compound: COc1cc2c(cc1OC)C(=O)/C(=C/c1cc(F)cc(F)c1)C2
- Cytotoxicity (A549): Significant activity
- Cytotoxicity (B16): Significant activity
- Cytotoxicity (CCRF-CEM): Significant activity
- Cytotoxicity (NCI-H596): Significant activity
- Cytotoxicity (NCI-H292): Significant activity
- Cytotoxicity (HL-60): Significant activity
- IC50 (Jurkat): 19 µM
- Cytotoxicity (K562): Significant activity
- Cytotoxicity (L1210): Significant activity
- Cytotoxicity (MCF7): Significant activity
- Cytotoxicity (MOLT-4): Significant activity
- Cytotoxicity (NIH3T3): Significant activity
- Cytotoxicity (WI-38): Significant activity
- Cytotoxicity (WIL2): Significant activity

Compound: COc1cc2c(cc1OC)C(=O)/C(=C/c1cc(C)c(OCC(=O)O)c(C)c1)C2
- Cytotoxicity (A549): Significant activity
- Cytotoxicity (B16): Significant activity
- Cytotoxicity (CCRF-CEM): Significant activity
- Cytotoxicity (NCI-H596): Significant activity
- Cytotoxicity (NCI-H292): Significant activity
- Cytotoxicity (HL-60): Significant activity
- IC50 (Jurkat): 6.3 µM
- Cytotoxicity (K562): Significant activity
- Cytotoxicity (L1210): Significant activity
- Cytotoxicity (MCF7): Significant activity
- Cytotoxicity (MOLT-4): Significant activity
- Cytotoxicity (NIH3T3): Significant activity
- Cytotoxicity (WI-38): Significant activity
- Cytotoxicity (WIL2): Significant activity

Compound: COc1cc2c(cc1OC)C(=O)/C(=C/c1cccc(Cl)c1)CC2
- Cytotoxicity (A549): Significant activity
- Cytotoxicity (B16): Significant activity
- Cytotoxicity (CCRF-CEM): Significant activity
- Cytotoxicity (NCI-H596): Significant activity
- Cytotoxicity (NCI-H292): Significant activity
- Cytotoxicity (HL-60): Significant activity
- IC50 (Jurkat): 9 µM
- Cytotoxicity (K562): Significant activity
- Cytotoxicity (L1210): Significant activity
- Cytotoxicity (MCF7): Significant activity
- Cytotoxicity (MOLT-4): Significant activity
- Cytotoxicity (NIH3T3): Significant activity
- Cytotoxicity (WI-38): Significant activity
- Cytotoxicity (WIL2): Significant activity

Compound: COc1cc2c(cc1OC)C(=O)/C(=C/c1cccc([N+](=O)[O-])c1)CC2
- Cytotoxicity (A549): Significant activity
- Cytotoxicity (B16): Significant activity
- Cytotoxicity (CCRF-CEM): Significant activity
- Cytotoxicity (NCI-H596): Significant activity
- Cytotoxicity (NCI-H292): Significant activity
- Cytotoxicity (HL-60): Significant activity
- IC50 (Jurkat): 9 µM
- Cytotoxicity (K562): Significant activity
- Cytotoxicity (L1210): Significant activity
- Cytotoxicity (MCF7): Significant activity
- Cytotoxicity (MOLT-4): Significant activity
- Cytotoxicity (NIH3T3): Significant activity
- Cytotoxicity (WI-38): Significant activity
- Cytotoxicity (WIL2): Significant activity

Compounds with a lower IC50 (Jurkat), results first:

- IC50 (Jurkat): 0.53 µM
Compound: COc1cc2c(cc1O)C/C(=C\c1cc(C)c(O)c(C)c1)C2=O
- Cytotoxicity (A549): Significant activity
- Cytotoxicity (B16): Significant activity
- Cytotoxicity (CCRF-CEM): Significant activity
- Cytotoxicity (NCI-H596): Significant activity
- Cytotoxicity (NCI-H292): Significant activity
- Cytotoxicity (HL-60): Significant activity
- Cytotoxicity (K562): Significant activity
- Cytotoxicity (L1210): Significant activity
- Cytotoxicity (MCF7): Significant activity
- Cytotoxicity (MOLT-4): Significant activity
- Cytotoxicity (NIH3T3): Significant activity
- Cytotoxicity (WI-38): Significant activity
- Cytotoxicity (WIL2): Significant activity

- IC50 (Jurkat): 0.125 µM
Compound: COc1cc2c(c(OC)c1OC)C(=O)/C(=C/c1cc(C)c(O)c(C)c1)C2
- Cytotoxicity (A549): Significant activity
- Cytotoxicity (B16): Significant activity
- Cytotoxicity (CCRF-CEM): Significant activity
- Cytotoxicity (NCI-H596): Significant activity
- Cytotoxicity (NCI-H292): Significant activity
- Cytotoxicity (HL-60): Significant activity
- Cytotoxicity (K562): Significant activity
- Cytotoxicity (L1210): Significant activity
- Cytotoxicity (MCF7): Significant activity
- Cytotoxicity (MOLT-4): Significant activity
- Cytotoxicity (NIH3T3): Significant activity
- Cytotoxicity (WI-38): Significant activity
- Cytotoxicity (WIL2): Significant activity

- IC50 (Jurkat): 2.5 µM
Compound: COc1cc2c(cc1OC)C(=O)/C(=C/c1cc(I)cc(I)c1O)C2
- Cytotoxicity (A549): Significant activity
- Cytotoxicity (B16): Significant activity
- Cytotoxicity (CCRF-CEM): Significant activity
- Cytotoxicity (NCI-H596): Significant activity
- Cytotoxicity (NCI-H292): Significant activity
- Cytotoxicity (HL-60): Significant activity
- Cytotoxicity (K562): Significant activity
- Cytotoxicity (L1210): Significant activity
- Cytotoxicity (MCF7): Significant activity
- Cytotoxicity (MOLT-4): Significant activity
- Cytotoxicity (NIH3T3): Significant activity
- Cytotoxicity (WI-38): Significant activity
- Cytotoxicity (WIL2): Significant activity

- IC50 (Jurkat): 0.055 µM
Compound: COc1cc2c(cc1OC)C(=O)/C(=C/c1cc(C)c(N)c(C)c1)C2
- Cytotoxicity (A549): Significant activity
- Cytotoxicity (B16): Significant activity
- Cytotoxicity (CCRF-CEM): Significant activity
- Cytotoxicity (NCI-H596): Significant activity
- Cytotoxicity (NCI-H292): Significant activity
- Cytotoxicity (HL-60): Significant activity
- Cytotoxicity (K562): Significant activity
- Cytotoxicity (L1210): Significant activity
- Cytotoxicity (MCF7): Significant activity
- Cytotoxicity (MOLT-4): Significant activity
- Cytotoxicity (NIH3T3): Significant activity
- Cytotoxicity (WI-38): Significant activity
- Cytotoxicity (WIL2): Significant activity

- IC50 (Jurkat): 1.8 µM
Compound: COc1cc2c(cc1OC)C(=O)/C(=C/c1cccc(C)c1)C2
- Cytotoxicity (A549): Significant activity
- Cytotoxicity (B16): Significant activity
- Cytotoxicity (CCRF-CEM): Significant activity
- Cytotoxicity (NCI-H596): Significant activity
- Cytotoxicity (NCI-H292): Significant activity
- Cytotoxicity (HL-60): Significant activity
- Cytotoxicity (K562): Significant activity
- Cytotoxicity (L1210): Significant activity
- Cytotoxicity (MCF7): Significant activity
- Cytotoxicity (MOLT-4): Significant activity
- Cytotoxicity (NIH3T3): Significant activity
- Cytotoxicity (WI-38): Significant activity
- Cytotoxicity (WIL2): Significant activity

- IC50 (Jurkat): 1.16 µM
Compound: COc1cc2c(cc1OC)C(=O)/C(=C/c1ccc(O)c(C)c1)C2
- Cytotoxicity (A549): Significant activity
- Cytotoxicity (B16): Significant activity
- Cytotoxicity (CCRF-CEM): Significant activity
- Cytotoxicity (NCI-H596): Significant activity
- Cytotoxicity (NCI-H292): Significant activity
- Cytotoxicity (HL-60): Significant activity
- Cytotoxicity (K562): Significant activity
- Cytotoxicity (L1210): Significant activity
- Cytotoxicity (MCF7): Significant activity
- Cytotoxicity (MOLT-4): Significant activity
- Cytotoxicity (NIH3T3): Significant activity
- Cytotoxicity (WI-38): Significant activity
- Cytotoxicity (WIL2): Significant activity
